Source: article PMC7381750, “JP1 suppresses proliferation and metastasis of melanoma through MEK1/2 mediated NEDD4L-SP1-Integrin αvβ3 signaling” (Theranostics, 2020)
“And” between values parts separate entries of the source, which are not always exact repeats. Equal values may be shown once. “Also recorded” adds a separate entry of the source. Non-standard residues stand in square brackets, D forms with d. Residues, ends and D or L forms follow the SMILES beside them. pS = N[C@@H](COP(=O)(O)O)C(=O)O

What was measured:
[1] = 14-day cynomolgus monkey toxicity test (overall); format: in vivo
Experimental: The test was completed by Suzhou Xishan Zhongke Drugs Research and Development Co., Ltd. (Xishan, Suzhou, China). The study proposal was approved by the Institute Animal Care and Use Committee (IACUC, ID19012912). Cynomolgus monkeys (3-4 years old) were randomly divided into three groups (n = 4 per group, half male and female); and the monkeys were treated with solvent control (Mannitol in saline, 75 mg/kg/d), JP1 (45 mg/kg/day) and JP1 (150 mg/kg/day) for 14 days. The experiment was ended on 15th day and the animals were euthanasia. The relevant clinical parameters were determined on 7th and 13th day, respectively. […]
The JP1 was provided by Hybio Pharmaceutical Co., Ltd. (Shenzhen, China); the production of small packaging preparation (100 mg/vial in freeze-dried powder, purity > 98%; -20 °C for storage and transportation) was completed under strict GMP conditions and quality control procedures for biological preparations. […] The relevant clinical indicators including symptoms, body weight, food intake, temperature, ophthalmology, electrocardiogram, blood routine examination, blood biochemistry, blood coagulation, urinalysis, immunotoxicity were determined on 7th and 13th, respectively. […]
(§1) indicators in all animals, and the pathological observation of organs was not determined. […]

[2] = Cynomolgus monkey toxicity test: immunotoxicity; format: in vivo
Experimental: (§2) The test was completed by Suzhou Xishan Zhongke Drugs Research and Development Co., Ltd. (Xishan, Suzhou, China). The study proposal was approved by the Institute Animal Care and Use Committee (IACUC, ID19012912). Cynomolgus monkeys (3-4 years old) were randomly divided into three groups (n = 4 per group, half male and female); and the monkeys were treated with solvent control (Mannitol in saline, 75 mg/kg/d), JP1 (45 mg/kg/day) and JP1 (150 mg/kg/day) for 14 days. The experiment was ended on 15th day and the animals were euthanasia. The relevant clinical parameters were determined on 7th and 13th day, respectively. The observed parameters were including clinical symptoms, weight, food intake, body temperature, ophthalmology, electrocardiogram, blood routine examination, blood biochemistry, blood coagulation, urinalysis, immunotoxicity.
(§3) Supplementary database files: Cynomolgus monkey toxicity test […]
(§4) The study was conducted by a contract service in Suzhou Xishan Zhongke Drugs Research and Development Co., Ltd. (Xishan, Suzhou, China). All the use of animals were approved by the Institute Animal Care and Use Commttee, IACUC. IACUC no. :
(§5) ID19012912. The veterinarian will supervise the breeding and welfare of the animals. The company follows the Guide for the Care and Use of Laboratory Animals (8th ed., 2011).
(§6) Cynomolgus monkeys (3-4 years old) were randomly divided into three groups (n = 4 per group, two males and two females for each group); and treated q.d./i.v. with Mannitol (75 mg/kg/d in saline), JP1 (45 mg/kg/d) and JP1 (150 mg/kg/d) for 14 days, respectively. JP1 was dissolved in saline (100 mg/2 ml) and administered intravenously at a rate of 3 ml/min.
(§7) The JP1 was provided by Hybio Pharmaceutical Co., Ltd. (Shenzhen, China); the production of small packaging preparation (100 mg/vial in freeze-dried powder, purity > 98%; -20 °C for storage and transportation) was completed under strict GMP conditions and quality control procedures for biological preparations. No recovery period was set for this test; the experimental model was ended on 15th day. The relevant clinical indicators including symptoms, body weight, food intake, temperature, ophthalmology, electrocardiogram, blood routine examination, blood biochemistry, blood coagulation, urinalysis, immunotoxicity were determined on 7th and 13th, respectively. […]
as §1
(§8) relevant clinical indicators in two JP1 groups were no difference compared with those in […]
(§9) Level (NOAEL) of JP1 was 150 mg/kg.

[3] = Cynomolgus monkey toxicity test: blood routine examination; format: in vivo
Experimental: as §2, §3, §4, §5, §6, §7, §1, §8, §9

[4] = Cynomolgus monkey toxicity test: urinalysis; format: in vivo
Experimental: as §2, §3, §4, §5, §6, §7, §1, §8, §9

[5] = Preliminary pharmacokinetic analysis in SD rats
Experimental: The drug half-life (t1/2) is calculated by the formula t1/2 = 0.693/k, where k is the elimination rate constant (k = (Inc1-Inc2)/(t2-t1)).

[6] = JP1 45 mg/kg/d i.v., D7, monkeys 1105,1106,2107,2108, 45 mg/kg/day
[7] = JP1 45 mg/kg/d i.v., D13, monkeys 1105,1106,2107,2108, 45 mg/kg/day
[8] = JP1 150 mg/kg/d i.v., D7, monkeys 1209,1210,2211,2212, 150 mg/kg/day
[9] = JP1 150 mg/kg/d i.v., D13, monkeys 1209,1210,2211,2212, 150 mg/kg/day
[10] = JP1 150 mg/kg/d i.v., D7, monkeys 1209,1210,2211,2212
[11] = JP1 45 mg/kg/d i.v., D7, monkeys 1105,1106,2107,2108
[12] = JP1 45 mg/kg/d i.v., D13, monkeys 1105,1106,2107,2108
[13] = JP1 150 mg/kg/d i.v., D13, monkeys 1209,1210,2211,2212
[14] = male, Sprague-Dawley, rat, blood, ip, 100 mg/kg

CC(=O)N[C@@H](Cc1ccccc1)C(=O)N1CCC[C@H]1C(=O)NCC(=O)N[C@@H](COP(=O)(O)O)C(=O)N[C@@H](CC(=O)O)C(=O)N[C@@H](CCCNC(=N)N)C(=O)N[C@@H](Cc1ccccc1)C(=O)NCC(=O)NCC(=O)NCC(=O)NCC(=O)N[C@@H](CCCNC(=N)N)C(=O)NCC(=O)N[C@@H](CC(=O)O)C(N)=O [JP1] (Ac-FPG[pS]DRFGGGGRGD-NH2)
changes in detected parameters (clinical symptoms, weight, food intake, body temperature, ophthalmology, ECG, blood, urinalysis, immune-toxicity) ([1]; I.V. 45 or 150 mg/kg/day for 14 days, compared to control): no significant changes in all detected parameters | NOAEL at 14 days ([1]; both sexes, in vivo, iv, 14 days, read-out: no observed adverse effect level (NOAEL)): 150 mg/kg | CD3+CD4+ [2, 6]: 14.420% and 14.760% and 20.160% and 13.220% | CD3+CD8+ [2, 6]: 27.140% and 25.500% and 32.040% and 35.620% | CD3+CD4+ [2, 7]: 13.100% and 19.100% and 14.180% and 13.220% | CD3+CD8+ [2, 7]: 41.820% and 43.140% and 47.160% and 31.220% | CD3+CD8+ [2, 8]: 35.120% and 32.940% and 27.060% and 33.660% | CD3+CD4+ [2, 9]: 24.420% and 20.280% and 28.260% and 22.580% | CD3+CD8+ [2, 9]: 40.460% and 36.280% and 38.920% and 46.260% | BASO % [3, 6]: 0.1% and 0.0% | EO % [3, 6]: 0.4% and 0.0% and 0.9% and 0.5% | HCT [3, 6]: 34.5% and 36.0% and 39.6% and 37.9% | HGB [3, 6]: 118 g/L and 111 g/L and 119 g/L and 104 g/L | LYMPH % [3, 6]: 17.9% and 15.8% and 30.8% and 26.7% | MCH [3, 6]: 23.1 pg and 24.5 pg and 23.4 pg and 23.2 pg | MCHC [3, 6]: 311 g/L and 308 g/L and 301 g/L | MCV [3, 6]: 79.5 fL and 77.0 fL and 78.0 fL and 74.3 fL | MONO % [3, 6]: 2.6% and 2.2% and 3.8% and 2.0% | NEUT % [3, 6]: 81.6% and 79.8% and 64.5% and 70.2% | NEUT# [3, 6]: 9.22 109/L and 12.27 109/L and 11.67 109/L and 7.64 109/L | PLT [3, 6]: 476 109/L and 539 109/L and 485 109/L and 393 109/L | RBC [3, 6]: 5.10 1012/L and 4.53 1012/L and 5.08 1012/L and 4.48 1012/L | RET% [3, 6]: 0.68% and 2.83% and 1.78% and 2.67% | WBC [3, 6]: 15.04 109/L and 11.55 109/L and 18.07 109/L and 10.87 109/L | BASO % [3, 7]: 0.0% and 0.1% | EO % [3, 7]: 1.2% and 1.9% and 0.3% and 2.5% | HCT [3, 7]: 40.1% and 36.5% and 39.2% and 42.2% | HGB [3, 7]: 121 g/L and 113 g/L and 115 g/L and 127 g/L | LYMPH % [3, 7]: 39.5% and 40.7% and 28.2% and 42.7% | MCH [3, 7]: 25.3 pg and 23.1 pg and 23.9 pg and 23.3 pg | MCHC [3, 7]: 302 g/L and 310 g/L and 293 g/L and 301 g/L | MCV [3, 7]: 83.7 fL and 74.5 fL and 81.5 fL and 77.4 fL | MONO % [3, 7]: 7.1% and 3.5% and 4.4% and 4.8% | NEUT % [3, 7]: 52.2% and 53.8% and 67.0% and 49.9% | PLT [3, 7]: 449 109/L and 489 109/L and 561 109/L and 590 109/L | RBC [3, 7]: 4.79 1012/L and 4.90 1012/L and 4.81 1012/L and 5.45 1012/L | RET% [3, 7]: 3.65% and 0.95% and 3.41% and 1.99% | BASO % [3, 10]: 0.1% | BASO# [3, 10]: 0.01 109/L | EO % [3, 8]: 0.1% and 0.4% and 0.6% | HCT [3, 8]: 37.0% and 38.5% and 37.2% and 34.6% | HGB [3, 8]: 117 g/L and 112 g/L and 110 g/L and 106 g/L | LYMPH# [3, 8]: 3.39 109/L and 3.63 109/L and 4.19 109/L and 2.35 109/L | MCH [3, 8]: 24.4 pg and 23.3 pg and 23.4 pg and 21.8 pg | MCHC [3, 8]: 316 g/L and 291 g/L and 296 g/L and 306 g/L | MCV [3, 8]: 77.2 fL and 80.0 fL and 79.1 fL and 71.2 fL | MONO % [3, 8]: 3.4% and 4.0% and 2.4% | MONO# [3, 8]: 0.53 109/L and 0.65 109/L and 0.50 109/L and 0.39 109/L | NEUT % [3, 8]: 74.4% and 77.1% and 61.7% and 82.9% | NEUT# [3, 8]: 11.48 109/L and 14.75 109/L and 7.71 109/L and 13.42 109/L | PLT [3, 8]: 457 109/L and 540 109/L and 391 109/L and 474 109/L | RBC [3, 8]: 4.79 1012/L and 4.81 1012/L and 4.70 1012/L and 4.86 1012/L | RET# [3, 8]: 44.1 109/L and 70.7 109/L and 81.8 109/L and 74.4 109/L | RET% [3, 8]: 0.92% and 1.47% and 1.74% and 1.53% | WBC [3, 8]: 15.42 109/L and 19.12 109/L and 12.48 109/L and 16.18 109/L | BASO % [3, 9]: 0.1% and 0.0% | EO % [3, 9]: 1.7% and 0.3% and 0.8% and 1.5% | HCT [3, 9]: 38.8% and 38.3% and 37.7% and 36.9% | HGB [3, 9]: 109 g/L and 115 g/L and 121 g/L and 111 g/L | LYMPH % [3, 9]: 30.4% and 27.4% and 43.1% and 40.0% | LYMPH# [3, 9]: 4.07 109/L and 5.06 109/L and 2.56 109/L and 4.46 109/L | MCH [3, 9]: 23.7 pg and 21.4 pg and 24.5 pg and 23.8 pg | MCHC [3, 9]: 295 g/L and 296 g/L and 316 g/L and 294 g/L | MCV [3, 9]: 80.2 fL and 72.3 fL and 77.7 fL and 80.9 fL | MONO % [3, 9]: 6.3% and 6.4% and 4.1% and 7.8% | NEUT % [3, 9]: 65.9% and 52.0% and 50.6% and 61.5% | PLT [3, 9]: 357 109/L and 548 109/L and 451 109/L and 510 109/L | RBC [3, 9]: 4.60 1012/L and 5.37 1012/L and 4.93 1012/L and 4.66 1012/L | RET% [3, 9]: 1.63% and 2.23% and 2.58% and 1.36% | WBC [3, 9]: 9.44 109/L and 12.65 109/L and 8.41 109/L and 16.30 109/L | GLU (urine) [4, 11]: NORMAL | URO (Urobilinogen) [4, 11]: NORMAL | COL (urine) [4, 6]: COLORLESS; also recorded: YELLOW | SG (Urine specific gravity) [4, 6]: 1.004 and 1.005 and 1.008 and 1.012 | pH (urine) [4, 6]: 8.0 and 8.5 | COL (urine) [4, 12]: COLORLESS | GLU (urine) [4, 12]: NORMAL | URO (Urobilinogen) [4, 12]: NORMAL | SG (Urine specific gravity) [4, 7]: 1.006 and 1.007 and 1.009 | pH (urine) [4, 7]: 7.5 and 8.0 and 8.5 | GLU (urine) [4, 10]: NORMAL | URO (Urobilinogen) [4, 10]: NORMAL | COL (urine) [4, 8]: LIGHT YELLOW; also recorded: COLORLESS | SG (Urine specific gravity) [4, 8]: 1.002 and 1.009 and 1.020 and 1.006 | pH (urine) [4, 8]: 7.5 and 8.5 | GLU (urine) [4, 13]: NORMAL | LEU (Urine leukocyte) [4, 13]: NEG. | URO (Urobilinogen) [4, 13]: NORMAL | COL (urine) [4, 9]: COLORLESS; also recorded: LIGHT YELLOW | SG (Urine specific gravity) [4, 9]: 1.004 and 1.013 and 1.005 and 1.009 | pH (urine) [4, 9]: 8.0 and 8.5 and 7.5 | elimination rate constant k ([5]; SD rats, 100 mg/kg i.p., from 0.25 h and 1 h concentrations): 0.526 | level at 0.25 h [5, 14]: 20500 ng/mL | level at 1 h [5, 14]: 13800 ng/mL
